Measured values from PMC3856129, “Cytotoxicity and Genotoxicity Evaluation of Organochalcogens in Human Leucocytes: A Comparative Study between Ebselen, Diphenyl Diselenide, and Diphenyl Ditelluride” (BioMed Research International, 2013).

Experiments:
[1] = test system: human leucocytes; assay: Trypan's Blue exclusion test (cell viability); format: cell-based; conditions: for decrease in leucocyte viability: 50 μM; for effect on cell viability at lower concentrations: 5 and 10 μM
Method: (§1) 2 mL of dextran 5% (dissolved in Phosphate Buffer Saline 1%) was added to 8 mL of blood. The tube was gently mixed and left to stand at room temperature for 45 min. Afterwards, the supernatant was centrifuged (480 ×g, 10 min) and plasma was discarded. The pellet was washed with erythrocyte lysis solution (NH4Cl 150 mM; NaHCO3 10 mM; EDTA 1 mM) and centrifuged (480 ×g, 2 min). The supernatant was discarded and the pellet was washed twice with 1 mL erythrocyte lysis solution. After the second centrifugation, the pellet was suspended in 2 mL Hank's buffer solution (KCl 5.4 mM; Na2HPO4 0.3 mM; KH2PO4 0.4 mM; NaHCO3 4.2 mM; MgCl2 0.5 mM; NaCl 122.6 mM; D-glicose 10 mM, Tris-HCl 10 mM; CaCl2 1.3 mM; pH 7.4). The concentration of leucocytes was adjusted to 2000 cells/μL.
(§2) Leucocytes were exposed to ebselen, (PhSe)2, and (PhTe)2 at 5, 10, and 50 μM or an equal volume of DMSO (final concentration of 0.5%) during 3 hours at 37°C. Positive control group was treated with hydrogen peroxide (H2O2) 2 mM and sodium azide 1 mM.
Trypan's Blue exclusion test was performed according to Mischel and Shiingi. After 3 hours of incubation, 50 μL of Trypan's Blue 0.4% was mixed with 50 μL of leucocytes and left to stand at room temperature for 5 minutes. Cell viability was determined microscopically (400x magnification) and expressed as number of viable cells divided by the total number of cells multiplied by 100.

[2] = test system: human leucocytes; assay: Comet Assay (DNA damage index); format: cell-based; conditions: 3 hours at 37°C, compared to the control group
Method: as §1, §2
Comet Assay was performed according to Collins with some modifications. After three hours of incubation, 15 μL of the sample was mixed with 90 μL of low-melting point agarose 0.75% and placed in a slide precoated with agarose 1%. A coverslip was added and the samples were left to solidify at 4°C. The coverslips were removed and the slides were placed on a lysis solution (NaCl 2.5 M; EDTA 100 mM; Tris-HCl 8 mM; Triton X-100 1%; pH 10–10.5) during 24 hours at 4°C. Afterwards, the slides were incubated in an electrophoresis solution (NaOH 300 mM; EDTA 1 mM; pH 13.5) for 20 minutes at 4°C and the electrophoresis was performed (25 V; 300 mA; 7 W) for 20 minutes. All the steps were performed in the dark until this moment. After electrophoresis, the slides were washed in a neutralizing solution (Tris-HCl 400 mM; pH 7.5) three times, washed with distilled water, and left to dry. The slides were rehydrated and fixed (Trichloroacetic acid 15%; ZnSO4 5%; glycerol 5%), washed three with distilled water, and left to dry. Afterwards, the rehydrated slides were stained (Na2CO3 5%; NH4NO3 0.1%; AgNO3 0.1%; H4[W12SiO40] 0.25%; formaldehyde 0.15%). The slides were immersed in acetic acid 1%, washed, and left to dry.
One hundred cells randomly selected were analyzed in each sample according to tail size and intensity in five classes. The damage score for each cell can range between 0 (no damage) and 4 (maximum damage), according to Figure 1. Damage index (DI) was defined as follows: DI = 1n1 + 2n2 + 3n3 + 4n4, where n1 represents the number of cells with damage level 1, n2 represents the number of cells with damage level 2, n3 represents the number of cells with damage level 3, and n4 represents the number of cells with damage level 4. At least two different individuals analyzed the slides under blind conditions.

[3] = 3 hours at 37°C, compared to the control groups

| Structure (SMILES) | decrease in leucocyte viability [1, 3] | effect on cell viability at lower concentrations ([1]; 3 hours at 37°C) | damage index (DI) of DNA ([2]; 50 μM) | damage index (DI) of DNA ([2]; 5 and 10 μM) | decrease in leucocyte viability ([1]; human, 3 h, pH 7.4) |
| --- | --- | --- | --- | --- | --- |
| c1ccc([Te][Te]c2ccccc2)cc1 [(PhTe)2, Diphenyl Ditelluride] | about 25% | did not cause significant decrease in cell viability | significant increase in DI | increased DI |  |
| O=c1c2ccccc2[se]n1-c1ccccc1 [ebselen, Ebselen] |  |  | significant increase in DI | did not cause DNA damage | about 60% |
| c1ccc([Se][Se]c2ccccc2)cc1 [(PhSe)2, Diphenyl Diselenide] | about 20% | did not cause significant decrease in cell viability | significant increase in DI | did not cause DNA damage |  |
